Data: US11090318B2, “Wound healing promoter” (NAHLS CORPORATION CO., LTD., priority 2017, dated 2021)
Structures can show the parent of a compound that is named as a salt.

Key:
[1] = test system: domestic dog affected by conjunctivitis; assay: Eye drops in a domestic dog affected by conjunctivitis; assay type: in vivo; conditions: antibiotic alone by instillation twice a day for one year or longer, before preparation (6)
Experimental: The pharmaceutical preparation (6) was administered as drops to the eyes of a domestic dog affected by conjunctivitis, and 30 minutes later an antibiotic (cefmenoxime hydrochloride 0.5%) was administered as drops to the eyes. This process was repeated twice a day for 5 days.
The domestic dog had suffered from signs of dry eye syndrome and often undergone conjunctivitis resulting from bacterial infection.

[2] = test system: Mouse fetus-derived fibroblasts; assay: Gene expression in fibroblasts with or without TGF-β (real-time PCR); assay type: cell-based; conditions: for PDLIM2 gene expression: 10 μg/mL, FIG. 6
Experimental: Mouse fetus-derived fibroblasts were spread or inoculated in a 10% FCS-containing Dulbecco's modified Eagle medium (DMEM) and cultured for 24 hours. The 10% FCS-containing DMEM was then removed, and a fresh DMEM devoid of FCS was added, followed by cultivation for further 24 hours. Next, the DMEM containing the cells was combined with Nahlsgen or D-AP6 obtained in Preparation Example 1 to a concentration of 10 μg/mL, cultured for 5 hours, further combined with TGF-β, and cultured for further 5 hours. After the cultivation, RNAs or proteins were recovered, and the quantities of MMP3, MMP9, MMP13, FGF, TGF-β, amphiregulin, PDLIM2, and hyaluronic acid (HSA2) were determined using the real-time PCR technique.

[3] = 10 μg/mL together with TGF-β, compared with TGF-β alone
[4] = substance added alone, Nahlsgen or D-AP6 10 μg/mL

Compound | curative effects [1] | expression of FGF [2, 3] | expression of MMP3 [2, 3] | expression of MMP9 [2, 3] | expression of MMP13 [2, 3] | expression of TGF-β [2, 3] | expression of amphiregulin [2, 3] | expression of hyaluronic acid [2, 3] | PDLIM2 gene expression [2] | expression of FGF [2, 4] | expression of MMP3 [2, 4] | expression of MMP9 [2, 4] | expression of MMP13 [2, 4] | expression of TGF-β [2, 4] | expression of amphiregulin [2, 4] | expression of hyaluronic acid [2, 4]
CO/N=C(\C(=O)N[C@@H]1C(=O)N2C(C(=O)O)=C(CSc3nnnn3C)CS[C@H]12)c1csc(N)n1 [antibiotic, cefmenoxime hydrochloride] | failed to enjoy curative effects | – | – | – | – | – | – | – | – | – | – | – | – | – | – | –
N[C@H](CCCCP(=O)(O)O)C(=O)O [D-AP6, D-2-amino-6-phosphonohexanoic acid monohydrate] | – | significantly increased the expression levels as compared with the addition of TGF-β alone | significantly increased the expression levels as compared with the addition of TGF-β alone | significantly increased the expression levels as compared with the addition of TGF-β alone | significantly increased the expression levels as compared with the addition of TGF-β alone | significantly increased the expression levels as compared with the addition of TGF-β alone | significantly increased the expression levels as compared with the addition of TGF-β alone | significantly increased the expression levels as compared with the addition of TGF-β alone | reduced PDLIM2 gene expression | approximately no change in the expression levels | approximately no change in the expression levels | approximately no change in the expression levels | approximately no change in the expression levels | approximately no change in the expression levels | approximately no change in the expression levels | approximately no change in the expression levels
COP(=O)(CCC(N)C(=O)O)Oc1cccc(CC(=O)O)c1 (centres unmarked) [Nahlsgen] | – | significantly increased the expression levels as compared with the addition of TGF-β alone | significantly increased the expression levels as compared with the addition of TGF-β alone | significantly increased the expression levels as compared with the addition of TGF-β alone | significantly increased the expression levels as compared with the addition of TGF-β alone | significantly increased the expression levels as compared with the addition of TGF-β alone | significantly increased the expression levels as compared with the addition of TGF-β alone | significantly increased the expression levels as compared with the addition of TGF-β alone | reduced PDLIM2 gene expression | approximately no change in the expression levels | approximately no change in the expression levels | approximately no change in the expression levels | approximately no change in the expression levels | approximately no change in the expression levels | approximately no change in the expression levels | approximately no change in the expression levels
TGF-β [reference compound] | – | – | – | – | – | – | – | – | – | increased the expression | increased the expression | increased the expression | increased the expression | increased the expression | increased the expression | increased the expression
